The record followed here is patent US12384769B2, “Heteroaryl-substituted aminoalkyl azole compounds as pesticides” (Elanco Animal Health GmbH, priority 2019, dated 2025).

The structures appear in SMILES notation.

Usually mortality stands for the percentage killed.

Common to all, as to assay type: in vivo
The subject of test [1] is Rhipicephalus sanguineus. Put plainly: Rhipicephalus sanguineus in-vitro contact test, adult brown dog ticks (RHIPSA Contact). Conditions: 5 μg/cm^2 (=500 g/ha), after 48 hours, read-out: activity (efficacy, ticks dead or moribund). The procedure:
Rhipicephalus sanguineus—in-Vitro Contact Tests with Adult Brown Dog Ticks (RHIPSA Contact)
9 mg compound is solved in 1 ml acetone and diluted with acetone to the desired concentration. 250 μl_, of the test solution is filled in 25 ml glass test tubes and homogeneously distributed on the inner walls by rotation and tilting on a shaking device (2 h at 30 rpm). With a compound concentration of 900 ppm, an inner surface of 44.7 cm^2 and a homogeneous distribution, a dose of 5 μg/cm^2 is achieved.
After the solvent has evaporated, each test tube is filled with 5-10 adult brown dog ticks (Rhipicephalus sanguineus), closed with a perforated lid and incubated in a lying position at room temperature and relative humidity. After 48 hours efficacy is determined. The ticks are patted on the ground of the tubes and are incubated on a heating plate at 45-50° C. for at most 5 minutes Immotile or uncoordinated moving ticks, which are not able to escape the heat by climbing upwards, are marked as dead or moribund.
An efficacy of 100% means all ticks are dead or moribund; 0% means no ticks are dead or moribund.

Test [2] deals with Boophilus microplus. Kind of test: Boophilus microplus injection test (BOOPMI Injection). Conditions: Rhipicephalus microplus, 168 h, injection into adult engorged female ticks, egg deposition after 7 days, read-out: activity (efficacy, infertile eggs); for pest or weed control at 0.004 mg: 4 μg/animal; for pest or weed control at 0.02 mg: 20 μg/animal. The procedure, abridged:
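Adult engorged female ticks (5 per group) injected into the abdomen with 1 μL compound in DMSO, then held in a climate chamber. Fertile egg deposition scored after 7 days, with unclear eggs kept until hatching (~42 days). Efficacy 100% = all eggs infertile, 0% = all fertile.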

Test [3] has as its system Rhipicephalus microplus (strain Parkhurst, resistant against synthetic pyrethroids). Kind of test: Rhipicephalus microplus in-vitro contact test, larval cattle tick (BOOPMI Contact). Conditions: 5 μg/cm^2 (=500 g/ha), after 48 hours, read-out: activity (efficacy, larvae dead or moribund). The procedure, abridged: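 Efficacy, expressed as percentage of larvae dead or moribund, is judged by negative geotactic behaviour 48 h after larvae (20-50 per tube) enter tubes whose inner walls carry a dried acetone film of compound, 5 μg/cm² at 900 ppm. Incubation: horizontal, 27 °C, 85% relative humidity.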

For test [4], the system named is Ctenocephalides felis. Kind of test: Ctenocephalides felis oral test (CTECFE). Conditions: 48 h, 100 ppm in cattle blood, after 2 days. As to the method: Ctenocephalides felis—Oral Test (CTECFE)
Solvent: dimethyl sulfoxide
To produce a suitable preparation of active compound, 10 mg of active compound are dissolved in 0.5 ml solvent, and the concentrate is diluted with cattle blood to the desired concentration.
Approximately 20 adult unfed cat fleas (Ctenocephalides felis) are placed in flea chambers. The blood chamber, sealed with parafilm on the bottom, are filled with cattle blood supplied with compound solution and placed on the gauze covered top of the flea chamber, so that the fleas are able to suck the blood. The blood chamber is heated to 37° C. whereas the flea chamber is kept at room temperature.
After 2 days mortality in % is determined. 100% means all the fleas have been killed; 0% means none of the fleas have been killed.

Test [5] concerns Diabrotica balteata. Put plainly: Diabrotica balteata spray test. Conditions: 168 h, wheat seeds, after 7 days, read-out: activity (efficacy, seedlings grown); for pest or weed control at 160 µg/disc, 500 g/ha: 500 g/ha (=160 μg/well). The procedure, abridged: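 Efficacy was read 7 days after infesting each unit with 10–20 banded cucumber beetle larvae, as % of seedlings growing like untreated, uninfested controls. Before infestation, wheat seeds germinated 1 day on agar (5 per well) were sprayed with the active ingredient. The active was formulated in acetone/DMF and diluted in water containing emulsifier.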

The subject of test [6] is Spodoptera frugiperda. Kind of test: Spodoptera frugiperda spray test. Conditions: in Zea mays, 168 h, read-out: activity (mortality). In a few lines:
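Larvae of fall armyworm placed on dried maize leaf sections previously sprayed with emulsified compound (acetone/DMF solvent, water with 1000 ppm emulsifier). Percent of caterpillars killed recorded on day 7, 0–100% scale.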

The subject of test [7] is Ctenocephalides felis. Kind of test: Ctenocephalides felis in-vitro contact test, adult cat flea. Conditions: 5 μg/cm^2 (=500 g/ha), after 48 hours, read-out: activity (efficacy, fleas dead or moribund). As to the method:
Ctenocephalides felis—in-Vitro Contact Tests Adult Cat Flea
9 mg compound is solved in 1 ml acetone and diluted with acetone to the desired concentration. […] the test solution is filled in 25 ml glass test tubes and homogeneously distributed on the inner walls by rotation and tilting on a shaking device (2 h at 30 rpm). With a compound concentration of 900 ppm, an inner surface of 44.7 cm^2 and a homogeneous distribution, a dose of 5 μg/cm^2 is achieved.
After the solvent has evaporated, each test tube is filled with 5-10 adult cat fleas (Ctenocephalides felis), closed with a perforated lid and incubated in a lying position at room temperature and relative humidity. After 48 hours efficacy is determined. The fleas are patted on the ground of the tubes and are incubated on a heating plate at 45-50° C. for at most 5 minutes Immotile or uncoordinated moving fleas, which are not able to escape the heat by climbing upwards, are marked as dead or moribund.
An efficacy of 100% means all fleas are dead or moribund; 0% means no fleas are dead or moribund.

Consider `C[C@H](Nc1nc2cc(C(F)(F)F)c(Cl)cc2o1)c1ncnn1-c1ccc(C(F)(F)F)cn1` [Example I-031], for which the pest or weed control at 5 µg/cm2, 5 µg/cm2 in test [1] stood at 80%.

Regarding `C[C@H](Nc1nc2cc(C(F)(F)F)cc(Br)c2o1)c1ncnn1-c1ncccn1` [Example I-034], in test [2], the pest or weed control at 0.004 mg came to 100% and the pest or weed control at 0.02 mg worked out at 100%. Besides, the pest or weed control at 5 µg/cm2 in test [3] turned out to be 90%. The mortality at 100 ppm in test [4] is 100%. In test [1], the pest or weed control at 5 µg/cm2, 5 µg/cm2 was 100%. Moreover, in test [5], the pest or weed control at 100 g/ha came out at 100% and the pest or weed control at 160 µg/disc, 500 g/ha came out at 80%. Moreover, in test [6], the mortality at 100 g/ha stood at 100% and the mortality at 500 g/ha is 100%.

As for `C[C@H](Nc1nc2cc(C(F)(F)F)cc(Cl)c2o1)c1ncnn1-c1cnccn1` [Example I-039, 7-chloro-N-{(1S)-1-[1-(pyrazin-2-yl)-1H-1,2,4-triazol-5-yl]ethyl}-5-(trifluoromethyl)-1,3-benzoxazol-2-amine], in test [2], the pest or weed control at 0.004 mg was 100% and the pest or weed control at 0.02 mg came out at 100%. In test [3], the pest or weed control at 5 µg/cm2 worked out at 90%. The molecule also gave a mortality at 100 ppm in test [4] of 100%. Besides, the pest or weed control at 5 µg/cm2, 5 µg/cm2 in test [1] was determined as 100%. In test [5], the pest or weed control at 100 g/ha is 100% and the pest or weed control at 160 µg/disc, 500 g/ha was 100%. For the same molecule, the mortality at 500 g/ha in test [6] turned out to be 100%.

On to `C[C@H](Nc1nc2cc(C(F)(F)F)cc(Cl)c2o1)c1ncnn1-c1ccncn1` [Example I-047, 7-Chlor-N-{(1S)-1-[1-(pyrimidin-4-yl)-1H-1,2,4-triazol-5-yl]ethyl}-5-(trifluormethyl)-1,3-benzoxazol-2-amin], for which, in test [2], the pest or weed control at 0.004 mg was 100% and the pest or weed control at 0.02 mg stood at 100%. The pest or weed control at 5 µg/cm2 in test [3] was determined as 100%. Moreover, in test [1], the pest or weed control at 5 µg/cm2, 5 µg/cm2 was 100%. Besides, in test [5], the pest or weed control at 100 g/ha is 100% and the pest or weed control at 160 µg/disc, 500 g/ha came to 100%. In addition, in test [6], the mortality at 100 g/ha came out at 100% and the mortality at 500 g/ha amounted to 100%.

Consider `C[C@H](Nc1nc2cc(C(F)(F)F)cc(Br)c2o1)c1ncnn1-c1ccc(C#N)cn1` [Example I-055, 6-[5-[(1S)-1-{[7-Brom-5-(trifluormethyl)-1,3-benzoxazol-2-yl]amino}ethyl]-1H-1,2,4-triazol-1-yl}nicotinonitril], for which, in test [2], the pest or weed control at 0.004 mg is 80% and the pest or weed control at 0.02 mg was found to be 100%. Further, in test [3], the pest or weed control at 5 µg/cm2 was found to be 100%. Also, the pest or weed control at 5 µg/cm2, 5 µg/cm2 in test [1] turned out to be 100%. For the same molecule, in test [5], the pest or weed control at 100 g/ha worked out at 100% and the pest or weed control at 160 µg/disc, 500 g/ha is 100%. Further, in test [6], the mortality at 100 g/ha amounted to 100% and the mortality at 500 g/ha was 100%.

As for `C[C@H](Nc1nc2cc(C(F)(F)F)c(Cl)cc2o1)c1ncnn1-c1ncc(Br)cn1` [Example I-062, N-{(1S)-1-[1-(5-Brompyrimidin-2-yl)-1H-1,2,4-triazol-5-yl]ethyl}-6-chlor-5-(trifluormethyl)-1,3-benzoxazol-2-amin], in test [2], the pest or weed control at 0.004 mg worked out at 100% and the pest or weed control at 0.02 mg was found to be 100%. The pest or weed control at 5 µg/cm2 in test [3] is 100%. Moreover, the pest or weed control at 5 µg/cm2, 5 µg/cm2 in test [7] amounted to 100%. The pest or weed control at 5 µg/cm2, 5 µg/cm2 in test [1] turned out to be 100%. Moreover, in test [5], the pest or weed control at 100 g/ha was 100% and the pest or weed control at 160 µg/disc, 500 g/ha was found to be 100%. Further, in test [6], the mortality at 100 g/ha amounted to 100% and the mortality at 500 g/ha was 100%.

Take `C[C@H](Nc1nc2cc(C3CC3)cc(Cl)c2o1)c1ncnn1-c1ncccn1` [Example I-065, 7-Chlor-5-cyclopropyl-N-{(1S)-1-[1-(pyrimidin-2-yl)-1H-1,2,4-triazol-5-yl]ethyl}-1,3-benzoxazol-2-amin]: in test [2], the pest or weed control at 0.004 mg was determined as 100% and the pest or weed control at 0.02 mg came out at 100%. Besides, in test [7], the pest or weed control at 5 µg/cm2, 5 µg/cm2 worked out at 100%. In test [4], this molecule had a mortality at 100 ppm of 100%. Besides, in test [1], the pest or weed control at 5 µg/cm2, 5 µg/cm2 worked out at 100%. Also, in test [5], the pest or weed control at 100 g/ha worked out at 100% and the pest or weed control at 160 µg/disc, 500 g/ha was determined as 100%.

Regarding `CC(C)c1cc(Cl)c2oc(N[C@@H](C)c3ncnn3-c3ccncn3)nc2c1` [Example I-066, 7-Chlor-5-isopropyl-N-{(1S)-1-[1-(pyrimidin-4-yl)-1H-1,2,4-triazol-5-yl]ethyl}-1,3-benzoxazol-2-amin], in test [2], the pest or weed control at 0.004 mg was determined as 100% and the pest or weed control at 0.02 mg stood at 100%. Also, the pest or weed control at 5 µg/cm2 in test [3] came out at 90%. Moreover, the pest or weed control at 5 µg/cm2, 5 µg/cm2 in test [1] is 80%. The pest or weed control at 160 µg/disc, 500 g/ha in test [5] worked out at 100%.

On to `C[C@H](Nc1nc2cc(S(F)(F)(F)(F)F)cc(Cl)c2o1)c1ncnn1-c1ncc(Br)cn1` [Example I-083, N-{(1S)-1-[1-(5-Brompyrimidin-2-yl)-1H-1,2,4-triazol-5-yl]ethyl}-7-chlor-5-(pentafluor-lambda^6-sulfanyl)-1,3-benzoxazol-2-amin], for which, in test [3], the pest or weed control at 5 µg/cm2 turned out to be 100%. In addition, the pest or weed control at 5 µg/cm2, 5 µg/cm2 in test [7] stood at 80%; in test [1] it was 100%. The pest or weed control at 100 g/ha in test [5] came to 80%. Also, the mortality at 100 g/ha in test [6] was found to be 100%.

Take `CC(Nc1nc2cc(C#N)cc(Cl)c2o1)c1ncnn1-c1ncccn1` (stereo not drawn) [Example I-084, 7-Chlor-2-({1-[1-(pyrimidin-2-yl)-1H-1,2,4-triazol-5-yl]ethyl}amino)-1,3-benzoxazol-5-carbonitril]: in test [2], the pest or weed control at 0.004 mg worked out at 100% and the pest or weed control at 0.02 mg was 100%. In addition, the pest or weed control at 5 µg/cm2 in test [3] came to 80%. Further, the pest or weed control at 5 µg/cm2, 5 µg/cm2 in test [7] worked out at 100%. The pest or weed control at 5 µg/cm2, 5 µg/cm2 in test [1] is 80%. In addition, the pest or weed control at 160 µg/disc, 500 g/ha in test [5] came out at 100%.

In the case of `C[C@H](Nc1nc2cc(Cl)cc(C(F)(F)F)c2o1)c1ncnn1-c1ncccn1` [Example I-090, 5-Chlor-N-{(1S)-1-[1-(pyrimidin-2-yl)-1H-1,2,4-triazol-5-yl]ethyl}-7-(trifluormethyl)-1,3-benzoxazol-2-amin], in test [2], the pest or weed control at 0.004 mg is 80% and the pest or weed control at 0.02 mg stood at 100%. In addition, the pest or weed control at 5 µg/cm2 in test [3] was determined as 100%. Also, in test [1], the pest or weed control at 5 µg/cm2, 5 µg/cm2 worked out at 100%. Also, the pest or weed control at 160 µg/disc, 500 g/ha in test [5] was determined as 100%. In test [6], the mortality at 500 g/ha came out at 100%.

On to `C[C@H](Nc1nc2cc(Cl)c(C(F)(F)F)cn2n1)c1ncnn1-c1ncccn1` [Example I-097, 7-chloro-N-{(1S)-1-[1-(pyrimdin-2-yl)-1H-1,2,4-triazol-5-yl]ethyl}-6-(trifluoromethyl)[1,2,4]triazolo[1,5-a]pyridin-2-amine], for which the pest or weed control at 5 µg/cm2 in test [3] came out at 100%. The pest or weed control at 5 µg/cm2, 5 µg/cm2 in test [7] worked out at 100%; in test [1] it was 80%.
